# Results as given in patent US6979664B1, “Composition for accelerating seed germination and plant growth” (Bios Agriculture Inc., priority 1998, dated 2005).
# Tests used:
# Type in all cases: in vivo
# [1] = system: Brassica napus; assay: seedling emergence at 15° C.
# Source text: (§1) Plastic pots (7.5 cm dia) were filled with 15 g of autoclaved vermiculite. Seeds of corn (Zea mays—Poaceae), bean (Phaseolus vulgaris—Fabaceae), canola (Brassica napus—Brassicaceae), cucumber (Cucumis sativus—Cucurbitaceae), cantaloupe (Cucumis melo—Cucurbitaceae), cotton (Gossypium sp.—Malvaceae), lettuce (Lactuca sativa—Asteraceae), beet (Beta vulgaris—Chenopodiaceae), and soybean (Glycine max—Fabaceae), were placed at 2.5 cm deep at the rate of 5 or 10 seeds per pot. Pots were irrigated with either 25 mL of LCO solution at different concentrations (10^−6–10^−14M) or aqueous acetonitrile or water, as controls. Acetonitrile was included as one of the controls since LCO was purified in this solvent (see Example 3), after 4 days the pots were irrigated with 10 mL of water once every two days. Each treatment had 4 replications in a randomized block design. Pots were placed on a green house bench maintained at 25±2° C. with a day/night cycle 16/8 h and relative humidity of 70%, or in a growth chamber set at 15° C. with a 16:8 day/night cycle. […] As defined above, seedling emergence has occurred when growth of the plant can be observed above the rooting medium surface. The percent emergence was calculated. The data were analyzed with Statistical Analysis System, version 6.12 (SAS institute Inc. Cary, N.C., USA).
# [2] = system: Cucumis sativus; assay: seedling emergence at 15° C.
# Source text: as §1
# [3] = system: Letuca sativa; assay: seedling emergence at 25° C.
# Source text: as §1
# [4] = system: Glycine max; assay: seedling emergence at 25° C.
# Source text: as §1
# [5] = system: Beta vulgaris; assay: seedling emergence at 25° C.
# Source text: as §1
# [6] = system: Cucumis melo; assay: seedling emergence at 25° C.
# Source text: as §1
# [7] = system: Gossypium sp.; assay: seedling emergence at 25° C.
# Source text: as §1
# [8] = system: Zea mays; assay: seedling emergence at 25° C.
# Source text: as §1
# [9] = system: Phaseolus vulgaris; assay: seedling emergence at 25° C.
# Source text: as §1
# [10] = system: Corn; assay: seedling emergence under field condition; settings: six days after planting
# Description: (§2) Seeds were surface sterilized with 2% sodium hypochlorite and soaked in different concentrations (10^−5, 10^−7, 10^−9M) of LCO solution for 12 h. Water served as the control. The study was conducted at the experimental field of the Macdonald campus of McGill University, Ste-Anne-de-Belleveue. Quebec, Canada. The field was ploughed to a fine tilth, seeds were hand planted in 1 m rows at 2.5 to 3 cm deep with three replications per treatment. […] The data was analyzed for significance by an ANOVA protected LSD test using SAS system Version 6.1 (SAS Inc., Cary, N.C., USA).
# [11] = system: Cotton; assay: seedling emergence under field condition; settings: for seedling emergence under field condition: Cotton, six days after planting
# Description: as §2
# [12] = system: Soybean; assay: seedling emergence under field condition; settings: six days after planting
# Description: as §2
# [13] = system: Beet; assay: seedling emergence under field condition; settings: six days after planting
# Description: as §2
# [14] = system: corn (Zea mays L.); assay: germination of corn after 72 h of treatment (petri plate); settings: 25° C.
# Description: Seeds of corn (cv Pioneer 3921) were surface sterilized in 2% sodium hypochlorite solution for 2 minutes and placed in 9 cm diameter Petri plates containing a sheet of filter paper soaked in 10 ml of the required test solution (LCO 10^−5–10^−13). Water served as the control. Observations on germination, length of root primodia and shoot were taken after 72 h of incubation at 25° C. The data was analyzed for significance by an ANOVA protected LSD test using SAS system Version 6.1 (SAS Inc., Cary, N.C., USA).
smiles,measurement,setting,value
"CCCCCCC=CCCCCCCCCCC(=O)NC1C(OC2C(CO)OC(OC3C(CO)OC(OC4C(CO)OC(OC5C(COC6OC(C)C(O)C(O)C6OC)OC(O)C(NC(C)=O)C5O)C(NC(C)=O)C4O)C(NC(C)=O)C3O)C(NC(C)=O)C2O)OC(CO)C(O)C1O (centres unmarked) [LCO, NodBj-V(C18:1Δ11)]",seedling emergence,[1]; 10^−6M,35 bc
same,seedling emergence,[1]; 10^−7M,32 c
same,seedling emergence,[1]; 10^−8M,35 bc
same,seedling emergence,[1]; 10^−9M,52 ab
same,seedling emergence,[1]; 10^−10M,62 a
same,seedling emergence,[1]; 10^−11M,47 bc
same,seedling emergence,[1]; 10^−12M,45 bc
same,seedling emergence,[1]; 10^−13M,37 bc
same,seedling emergence,[1]; 10^−14M,30 c
same,seedling emergence,[2]; 10^−6M,65 abc
same,seedling emergence,[2]; 10^−7M,85 ab
same,seedling emergence,[2]; 10^−8M,80 ab
same,seedling emergence,[2]; 10^−9M,70 abc
same,seedling emergence,[2]; 10^−10M,50 c
same,seedling emergence,[2]; 10^−11M,80 ab
same,seedling emergence,[2]; 10^−12M,80 ab
same,seedling emergence,[2]; 10^−13M,70 abc
same,seedling emergence,[2]; 10^−14M,70 abc
same,seedling emergence (%),[3]; 10^−6 M,45 a %
same,seedling emergence (%),[3]; 10^−7 M,35 ab %
same,seedling emergence (%),[3]; 10^−8 M,10 dc %
same,seedling emergence (%),[3]; 10^−9 M,20 bcd %
same,seedling emergence (%),[3]; 10^−10 M,25 abcd %
same,seedling emergence (%),[3]; 10^−11 M,26 abcd %
same,seedling emergence (%),[3]; 10^−12 M,30 abc %
same,seedling emergence (%),[3]; 10^−13 M,5 d %
same,seedling emergence (%),[3]; 10^−14 M,10 d %
same,seedling emergence (%),[4]; 10^−6 M,65 d %
same,seedling emergence (%),[4]; 10^−7 M,80 bc %
same,seedling emergence (%),[4]; 10^−8 M,90 ab %
same,seedling emergence (%),[4]; 10^−9 M,100 a %
same,seedling emergence (%),[4]; 10^−10 M,70 cd %
same,seedling emergence (%),[4]; 10^−11 M,50 e %
same,seedling emergence (%),[4]; 10^−12 M,80 bc %
same,seedling emergence (%),[4]; 10^−13 M,70 cd %
same,seedling emergence (%),[4]; 10^−14 M,70 cd %
same,seedling emergence (%),[5]; 10^−7 M,66.6%
same,seedling emergence (%),[5]; 10^−9 M,66 b %
same,seedling emergence (%),[5]; 10^−11 M,86 b %
same,seedling emergence (%),[5]; 10^−13 M,80 b %
same,seedling emergence (%),[6]; 10^−7 M,100 b %
same,seedling emergence (%),[6]; 10^−9 M,100 b %
same,seedling emergence (%),[6]; 10^−11 M,100 b %
same,seedling emergence (%),[6]; 10^−13 M,100 b %
same,seedling emergence (%),[7]; 10^−6 M,88 a %
same,seedling emergence (%),[7]; 10^−7 M,66 ab %
same,seedling emergence (%),[7]; 10^−8 M,88 a %
same,seedling emergence (%),[7]; 10^−9 M,88 a %
same,seedling emergence (%),[7]; 10^−10 M,88 a %
same,seedling emergence (%),[8]; 10^−6 M,76 ab %
same,seedling emergence (%),[8]; 10^−7 M,68 abc %
same,seedling emergence (%),[8]; 10^−8 M,84 a %
same,seedling emergence (%),[8]; 10^−9 M,88 a %
same,seedling emergence (%),[8]; 10^−10 M,84 a %
same,seedling emergence (%),[8]; 10^−11 M,68 abc %
same,seedling emergence (%),[8]; 10^−12 M,48 abc %
same,seedling emergence (%),[8]; 10^−13 M,40 c %
same,seedling emergence (%),[8]; 10^−14 M,40 c %
same,seedling emergence (%),[9]; 10^−6 M,67 abc %
same,seedling emergence (%),[9]; 10^−7 M,89 a %
same,seedling emergence (%),[9]; 10^−8 M,78 ab %
same,seedling emergence (%),[9]; 10^−9 M,67 abc %
same,seedling emergence (%),[9]; 10^−10 M,44 abc %
same,seedling emergence (%),[9]; 10^−11 M,22 c %
same,seedling emergence (%),[9]; 10^−12 M,33 bc %
same,seedling emergence (%),[9]; 10^−13 M,33 bc %
same,seedling emergence (%),[9]; 10^−14 M,33 bc %
same,seedling emergence under field condition,[10]; 10^−7 M seed soak 12 h,60.0 b
same,seedling emergence under field condition,[10]; LCO 10^−5 M seed soak 12 h,80.0 b
same,seedling emergence under field condition,[10]; LCO 10^−9 M seed soak 12 h,53.3 b
same,seedling emergence under field condition,[11]; 10^−7 M seed soak 12 h,60.0 b
same,seedling emergence under field condition,[11]; LCO 10^−5 M seed soak 12 h,16.6 a
same,seedling emergence under field condition,[11]; LCO 10^−9 M seed soak 12 h,23.3 a
same,improvement of emergence as compared to the control,"[11]; cotton, LCO at 10^−7M, field",more than 9 times
same,seedling emergence under field condition,[12]; 10^−7 M seed soak 12 h,33.3 b
same,seedling emergence under field condition,[12]; LCO 10^−5 M seed soak 12 h,26.6 ab
same,seedling emergence under field condition,[12]; LCO 10^−9 M seed soak 12 h,63.3 c
same,seedling emergence under field condition,[13]; 10^−7 M seed soak 12 h,46.6 c
same,seedling emergence under field condition,[13]; LCO 10^−5 M seed soak 12 h,28.3 a
same,seedling emergence under field condition,[13]; LCO 10^−9 M seed soak 12 h,38.3 ab
same,Length of root primodia,[14]; LCO 10^−5 M,53.0 ab mm
same,Length of shoot primodia,[14]; LCO 10^−5 M,12.3 ab mm
same,Percent germination,[14]; LCO 10^−5 M,80 bc Percent
same,Length of root primodia,[14]; LCO 10^−7 M,57.6 bc mm
same,Length of shoot primodia,[14]; LCO 10^−7 M,15.0 ab mm
same,Percent germination,[14]; LCO 10^−7 M,73.3 b Percent
same,Length of root primodia,[14]; LCO 10^−9 M,48.0 ab mm
same,Length of shoot primodia,[14]; LCO 10^−9 M,9.6 a mm
same,Percent germination,[14]; LCO 10^−9 M,73.3 b Percent
same,Length of root primodia,[14]; LCO 10^−11 M,78.6 c mm
same,Length of shoot primodia,[14]; LCO 10^−11 M,21.0 b mm
same,Percent germination,[14]; LCO 10^−11 M,100 c Percent
same,Length of root primodia,[14]; LCO 10^−13 M,43.0 bc mm
same,Length of shoot primodia,[14]; LCO 10^−13 M,8.3 a mm
same,Percent germination,[14]; LCO 10^−13 M,80 bc Percent
